Reference: patent US20140322145A1, “ANTIMICROBIAL COMPOSITION” (Rohm and Haas Company, priority 2011, published 2014)

What was measured:
Format in all cases: cell-based
[1] = tested on: Escherichia coli (10536 strain); experiment: 15 seconds contact-time bacterial kill assay, microtitre plate, plate counts (Examples 1 and 3); details: for MBC of antimicrobial alcohol: alcohol alone
Experimental: The efficacies of antimicrobial agents can be usefully compared by determining the Minimum Biocidal Concentration (MBC). The MBC is defined as the lowest absolute concentration of the particular active that provides complete kill (zero bacterial growth).
Antimicrobial efficacy is tested against a representative pathogenic bacterial organism, Gram negative Escherichia coli. Concentrations of actives are expressed in terms of the percentage weight/volume (% w/v) throughout Example 1.
An overnight culture of Escherichia coli (10536 strain) was prepared in 50 ml total volume of TSB broth, grown for ca. 18 hrs at 37° C. and shaken at 150 rpm. 1 ml of this overnight E. coli culture was transferred to 50 ml of fresh TSB broth and incubated at 37° C. at 150 rpm for ca. 4 hours. This culture was separated into equal volumes and centrifuged at 4000 rpm for 15 minutes, washed with sterile saline (0.85% NaCl), centrifuged once more and re-suspended in saline to give a final concentration of 0.8 OD620 equivalent to about 10^8 cells per milliliter for this particular organism. Here, OD620 indicates the absorbance of a sample in a cuvette of 1.0 cm path length at a wavelength of 620 nm. This bacterial stock was used for assaying against antimicrobial actives (in triplicate).
The following assay describes the testing of 8 materials using 6 dilutions across half of a 96-well micro titre plate (MTP). Using this approach it is possible to assay 16 actives (without replicates) with one full dilution plate, replicating this set up in two halves of the plate columns, 1-6 and 7-12.
1M solutions of the test actives were prepared in dimethylsulphoxide (DMSO).
Aliquots (270 μl) of the materials at 1.11 times the final concentration were dispensed into the wells of the MTP along one column (A1-H1). This MTP was labelled as the “Screening plate”.
In another MTP, labelled as the “Dilution plate”, 270 μl of D/E neutralising solution from DIFCO Composition was added to column 1. The composition of the neutralising solution was as follows: pancreatic digest of casein, 5.0 g/L; Yeast Extract, 2.5 g/L; Dextrose, 10 g/L, sodium thioglycollate, 1.0 g/L, sodium thiosulphate, 6.0 g/L; sodium bisulphite. 2.5 g/L; Polysorbate 80, 5.0 g/L; lecithin 7.0 g/L; bromocresol purple, 0.02 g/L with a pH in the range 7.6±0.2.
270 μl of tryptone diluent solution was added to all the remaining wells of the Dilution MTP (columns 2-6).
Bacterial stock (30 μl) was then added to the prepared 270 μl of the solution of actives in the Screening Plate and mixed, using a multichannel pipette with 8 tips to aspirate and dispense the same volume of bacterial stock in parallel to 8 wells in rows A-H. After a contact time of 15 seconds, the mixtures were quenched by transferring 30 μl volumes of the mixtures into the 270 μl DIE neutralising solution in the prepared dilution plate, using aspiration to mix. After exactly 5 minutes in the DIE neutralising solution, 30 μl volumes were transferred from column 1 to column 2 of the Dilution MTP and mixed, before transferring further 30 μl volumes from column 2 into column 3. This process was repeated serially diluting the bacteria across the plate to column 6.
30 μl volumes from each well in the Dilution MTP were transferred onto pre-labelled segment of Tryptone Soya Agar (TSA) plates starting from the lowest bacterial concentration (highest dilution, column 6) to the highest bacterial concentration (column 1). The TSA plates were allowed to stand for ca. 2 hours so that the 30 μl inocula spots could dry and the plates were then inverted and incubated overnight at 37° C. before enumerating the bacterial colonies at the labelled dilutions to determine the effects of the actives on bacterial growth.
Mean bacterial survival numbers NMBS (expressed in Log CFU/ml) are obtained by first determining the segment of the TSA plate where the number of bacterial colonies is countable. From the colony number in this segment, NMBS is calculated by the formula: […]

[2] = tested on: Escherichia coli (E. coli—ATCC #10536); experiment: Automated assessment of efficacy in surfactant base (Example 4); details: for 15 second bactericidal efficacy in combination with thymol: at concentrations lower than their MBC in the same surfactant formulation; for MBC (minimum biocidal concentration): in 2.85% sodium cocoyl glycinate + 1.85% sodium lauroamphoacetate solution at pH 10
Experimental: In these examples, the efficacy of combinations of thymol and antimicrobial alcohols of the invention were tested in a surfactant cleansing formulation comprising 2.85% sodium cocoyl glycinate and 1.85% sodium lauroamphoacetate. This corresponds to a 50% in use dilution with water of a typical neat formulation containing 5.7% cocoyl glycinate and 3.7% % sodium lauroamphoacetate during hand washing. Solutions were prepared such that the concentrations of the surfactant components and test actives were 1.1 times the final desired concentration in order to allow for dilution with the bacterial inoculum in the test. The solutions were manually adjusted to pH 10.0 by dropwise addition of sodium hydroxide solution, as measured with a pH meter at ambient temperature. Solutions of the thymol and/or antimicrobial alcohols of the invention were prepared at a maximum of 24 hours before testing. The same thymol and antimicrobial alcohols were used as in Examples 1 and 3.
The efficacy of the combinations of the present invention was determined against the same bacterium as in Example 1, Escherichia coli (E. coli—ATCC #10536), at a concentration of approximately 1×10^8 bacteria per mL.
Tests were conducted using standard microtiter plate assays using an automated liquid handling system. 270 μl of the surfactant test solution was pipetted into each well of the microtitre plate (Nunc F Gamma Irradiated 96F untreated microtitre plates of clear polystyrene) and 30 μl of the bacterial suspension was then added. After exactly 15 seconds of bacterial exposure, a 30 μl volume of bacterial cells was withdrawn and transferred to 270 μl of D/E quench solution. After 5 minutes in the DIE quench, the optical density (OD) was measured for each plate in turn at two specific wavelengths (450 nm and 590 nm). These provide a dual check of antimicrobial activity, as the OD450 reading is specific for the yellow colour of DIE quench when bacterial growth is observed, whereas OD590 is specific for the initial purple colour of the DIE quench which is retained if no bacterial growth is observed. After the time zero OD measurements, plates were then incubated at 37° C. overnight (16 hours) before repeating the OD measurements. Delta OD values were calculated by subtracting […] at time=16 hours. Bacterial growth is observed as an increase in OD450 and a decrease in OD590. To identify antibacterially efficacious systems (those preventing appreciable bacterial growth after incubation), the following threshold changes in OD readings have been adopted: if (1). OD450 increases by less than 0.2 absorbance unit (AU) on incubation and (2). OD590 decreases by less than 0.35 AU on incubation. Conversely, where OD450 increases by more than 0.1 AU and OD590 decreases by more than 0.1 AU after incubation, corresponding to a colour shift from purple to yellow, the test system allows bacterial growth and is not deemed efficacious. Four replicate measurements in the same plate have been made for each test system. The number of replicate wells showing either bacterial growth or no growth is also readily assessed by eye by following the colour change. Thymol and terpineol were tested both alone and in combination for comparison purposes.
In each case, binary mixtures were assessed in the weight to weight ratio of thymol to antimicrobial alcohol of 1:2.5.

[3] = tested on: Escherichia coli (E. coli—ATCC #10536); experiment: High resolution MBC synergy assay in phosphate buffer containing 35% dipropylene glycol (Example 2); details: complete kill in 15 seconds; other component 0
Experimental: In this Example, a wide range of combinations of chemicals was tested by conducting high resolution MBC assays of isocyclogeraniol in the presence of various concentrations of thymol. The materials were sourced in the same way as for Example 1. Synergy tests were conducted using standard microtiter plate assays with phosphate buffer containing 35% dipropylene glycol (DPG). […] The MBC plate was inoculated one column at a time with the test microorganism. An aliquot of the inoculated well was transferred at 15 seconds to a plate containing a neutralizing agent (D/E Neutralizing Broth), mixed and held for 5 minutes before being transferred to a growth plate containing trypticase soy broth (TSB). The TSB plate was incubated at 37° C. and read for the presence I absence of growth at 24 hours. […] This microorganism is representative of natural contaminants in many consumer and industrial applications.

[4] = Table 10, from the data in Table 9, 15 seconds

Structure (SMILES)	MBC (minimum biocidal concentration) [1, 4]	MBC of antimicrobial alcohol ([1]; Table 11, 15 seconds)	15 second bactericidal efficacy in combination with thymol [2]	MBC (minimum biocidal concentration) [2]	MBC of thymol ([1]; Table 5, thymol alone, 15 seconds)	MBC of thymol ([1]; Table 11, MBC of thymol of Example 1)	MBC of component alone (MBCA, MBCB) [3]	MBC (minimum biocidal concentration) ([1]; Table 4, lowest concentration giving zero bacterial survival after 15 seconds, upper boundaries)	MBC of antimicrobial alcohol ([1]; Table 5, 15 seconds)	MBC (minimum biocidal concentration) ([2]; listed as Isocyclogeraniol)
CC1=CCC(CO)C(C)C1 (centres unmarked) [floralol, (4,6-dimethylcyclohex-3-en-1-yl)methanol]	0.3 % w/v	0.3 % (w/v)	complete kill in all 4 replicates	0.4 % w/v						
CC1CCC(CO)C(C)C1 (centres unmarked) [dihydrofloralol, (2,4-dimethylcyclohexyl)methanol]	0.5 % w/v	0.5 % (w/v)	complete kill in all 4 replicates	0.5 % w/v						
Cc1ccc(C(C)C)c(O)c1 [thymol, 2-isopropyl-5-methylphenol]					0.05 % (w/v)	0.05 % (w/v)	0.5 weight %			
CC1=CC(C)C(CO)C(C)C1 (centres unmarked) [isocyclogeraniol, (2,4,6-trimethylcyclohex-3-en-1-yl)methanol]			complete kill in all 4 replicates	higher than the highest tested concentrations			0.6 weight %	0.3 % w/v	0.3 % (w/v)	>0.5 % w/v
